Assay results taken from ChEMBL document CHEMBL1154316, “Structure-activity relationship study of EphB3 receptor tyrosine kinase inhibitors” (Bioorg Med Chem Lett, 2009).

Assays:
[1] = Half life in mouse liver microsomes at 3 uM measured up to 60 mins; type: ADME, Microsome; conditions: for half-life at 3 µM: liver microsomes
[2] = Intrinsic clearance in mouse liver microsomes assessed as per mg of protein at 3 uM measured up to 60 mins; type: ADME, Microsome; conditions: for microsomal CLint at 3 µM: liver microsomes

| SMILES | half-life at 3 µM [1] | microsomal CLint at 3 µM [2] | t1/2 ([1]; microsomes, 1 h, 3 µM) | CL ([2]; microsomes, 1 h, 3 µM) |
| --- | --- | --- | --- | --- |
| O=C(Nc1ccccc1Cl)c1cnc2ccc(-c3ccccc3)cn12 | 53 min | 26 µL/min/mg |  |  |
| O=C(Nc1ccccc1Cl)c1cnc2ccc(N3CCCCC3)cn12 | 20 min | 71 µL/min/mg |  |  |
| O=C(Nc1ccccc1Cl)c1cnc2ccc(C3CCNCC3)cn12.O=C(O)C(=O)O | 348 min |  |  |  |

Now from value to compound:

| half-life at 3 µM [1] | microsomal CLint at 3 µM [2] | t1/2 ([1]; microsomes, 1 h, 3 µM) | CL ([2]; microsomes, 1 h, 3 µM) | SMILES |
| --- | --- | --- | --- | --- |
| 8.3 min | 167 µL/min/mg |  |  | O=C(Nc1ccccc1Cl)c1cnn2ccc(N3CCCCC3)cc12 |
|  |  | 5.3 min | 261 µL/min/mg | O=C(Nc1ccccc1Cl)c1cnn2ccccc12 |
| 3.8 min | 361 µL/min/mg |  |  | O=C(Nc1ccccc1Cl)c1cnc2ccccn12 |
| 27 min | 51 µL/min/mg |  |  | O=C(Nc1ccccc1Cl)c1cnn2ccc(-c3ccccc3)cc12 |
